Experimental data from patent publication US4497806A, “Triorganotin compounds, antifungal and antibacterial compositions containing same, and method of using same” (priority 1983, dated 1985).

How the values were obtained:
Escherichia coli = experiment: Antibacterial activity, agar growth inhibition; assay type: cell-based; conditions: for growth inhibition: Gram-negative, 24 hours at 37° C.
Experimental: (§1) The agar was also needed with a 1:100 dilution of an 18-hour old culture of the desired bacterial species in sterile distilled water. The plates were incubated for 24 hours at 37° C. with each bacterial strain. Observations of bacterial growth inhibition were made following the appropriate incubation period.
(§2) A solvent control was included in all evaluations, as were growth controls for all bacteria species.
(§3) These compounds were tested for antibacterial activity in the same manner as the triorganotin 5-nitro-2-furoates of the present invention.
(§4) All of the bacteria tested were obtained from the culture collection of the Department of Biological Sciences, St. John's University.

Pseudomonas aeruginosa = experiment: Antibacterial activity, agar growth inhibition; assay type: cell-based; conditions: for growth inhibition: Gram-negative, 24 hours at 37° C.
Experimental: as §1, §2, §3, §4

Staphylococcus aureus = experiment: Antibacterial activity, agar growth inhibition; assay type: cell-based; set-up: key to growth inhibition: -: no inhibition of growth; +: partial inhibition; 2+: complete inhibition; conditions: Gram-positive, 24 hours at 37° C.
Experimental: as §1, with “The antibacterial activity of Compounds A-E was investigated by means of incorporating the compounds into sterile tryptic soy agar (Difco) at levels of 100, 10, and 1 μg/ml. The agar” for “The agar”
as §2
Comparative compounds 1-5 above were employed for comparison purposes. These compounds were tested for antibacterial activity in the same manner as the triorganotin 5-nitro-2-furoates of the present invention.
as §4
The ability of Compound B to inhibit the growth of other Gram-positive bacteria, using the same test procedures as described for the antibacterial activity determined in Table III above, is illustrated in Table IV below.

[1] = system: Cladosporium carpophilium (ATCC 12117); experiment: Antifungal activity, agar plate growth inhibition; assay type: cell-based, Cladosporium carpophilum; conditions: for growth inhibition: 14 days
Experimental: (§5) Dilutions of the sterile solutions were prepared and added to liquified potato dextrose agar (Difco) to yield final concentrations of 100, 10 and 1 μg/ml. The agar, containing the appropriate organotin compound, was poured into sterile petri dishes and allowed to solidify over night. The agar surface was inoculated centrally with a 2 mm^2 portion of the growth from a ten-day-old culture of each fungus of the group consisting of Aspergillus niger, Chaetomium globosum, Cladosporium carpophilum, Fusarium moniliforme, Myrotheium verrucaria, Penicillium notatum, Rhizopus stolonifer, Trichoderma viride and Trichophyton mentagrophytes, or from a two-day-old culture of Saccharomyces cerevisiae. Inoculated plates were incubated for 14 days and observations of growth inhibition were made by measuring the diameters of the colonies present on the agar surface.
(§6) A solvent was included in all evaluations, as were growth controls for all fungal species.
(§7) The following compounds were tested for comparative purposes: [drawing 6] These compounds were tested for antifungal activity in the same manner as the triorganotin 5-nitro-2-furoates of the present invention.

[2] = system: Fusarium moniliforme (ATCC 10052); experiment: Antifungal activity, agar plate growth inhibition; assay type: cell-based; conditions: 14 days
Experimental: as §5, §6, §7

[3] = system: Saccharomyces cerevisiae (ATCC 9896); experiment: Antifungal activity, agar plate growth inhibition; assay type: cell-based; conditions: 14 days
Experimental: as §5, §6, §7

[4] = system: Penicillium notatum (ATCC 9179); experiment: Antifungal activity, agar plate growth inhibition; assay type: cell-based; conditions: for growth inhibition: 14 days
Experimental: as §5, §6, §7

[5] = system: Aspergillus niger (ATCC 12845); experiment: Antifungal activity, agar plate growth inhibition; assay type: cell-based; conditions: 14 days
Experimental: as §5, §6, §7

[6] = system: Myrothecium verrucaria (ATCC 9095); experiment: Antifungal activity, agar plate growth inhibition; assay type: cell-based; conditions: 14 days
Experimental: as §5, §6, §7

[7] = system: Trichoderma viride (ATCC 8678); experiment: Antifungal activity, agar plate growth inhibition; assay type: cell-based; conditions: 14 days
Experimental: as §5, §6, §7

[8] = system: Rhizopus stolonifer (ATCC 10404); experiment: Antifungal activity, agar plate growth inhibition; assay type: cell-based; conditions: 14 days
Experimental: as §5, §6, §7

[9] = system: Trichophyton mentagrophytes (ATCC 9129); experiment: Antifungal activity, agar plate growth inhibition; assay type: cell-based; conditions: 14 days
Experimental: as §5, §6, §7

[10] = system: Chaetomium globosum (ATCC 6205); experiment: Antifungal activity, agar plate growth inhibition; assay type: cell-based; conditions: 14 days
Experimental: as §5, §6, §7

What does the source list for “Tri(2-phenyl-2,2-dimethylethyl)tin 5-nitro-2-furoate [Compound D]”?
growth inhibition (Escherichia coli; 1 μg/ml): -; growth inhibition (Escherichia coli; 10 μg/ml): -; growth inhibition (Escherichia coli; 100 μg/ml): -; growth inhibition (Pseudomonas aeruginosa; 1 μg/ml): -; growth inhibition (Pseudomonas aeruginosa; 10 μg/ml): -; growth inhibition (Pseudomonas aeruginosa; 100 μg/ml): -; growth inhibition (Staphylococcus aureus; 1 μg/ml): -; growth inhibition ([1]; 1 μg/ml): -; growth inhibition ([1]; 10 μg/ml): -; growth inhibition ([1]; 100 μg/ml): -; growth inhibition ([2]; 1 μg/ml): -; growth inhibition ([2]; 10 μg/ml): -; growth inhibition ([2]; 100 μg/ml): -; growth inhibition ([3]; 1 μg/ml): -; growth inhibition ([3]; 10 μg/ml): -; growth inhibition ([3]; 100 μg/ml): -; growth inhibition ([4]; 1 μg/ml): -; growth inhibition ([4]; 10 μg/ml): +; growth inhibition ([4]; 100 μg/ml): +; growth inhibition ([5]; 1 μg/ml): -; growth inhibition ([5]; 10 μg/ml): -; growth inhibition ([5]; 100 μg/ml): -; growth inhibition ([6]; 1 μg/ml): -; growth inhibition ([6]; 10 μg/ml): +; growth inhibition ([6]; 100 μg/ml): +; growth inhibition ([7]; 1 μg/ml): -; growth inhibition ([7]; 10 μg/ml): -; growth inhibition ([7]; 100 μg/ml): -; growth inhibition ([8]; 1 μg/ml): -; growth inhibition ([8]; 10 μg/ml): -; growth inhibition ([8]; 100 μg/ml): -; growth inhibition ([9]; 1 μg/ml): +; growth inhibition ([9]; 10 μg/ml): +; growth inhibition ([9]; 100 μg/ml): +; growth inhibition ([10]; 1 μg/ml): -; growth inhibition ([10]; 10 μg/ml): +; growth inhibition ([10]; 100 μg/ml): +

Which growth inhibition (Escherichia coli; 1 μg/ml) does the source give for “Tricyclohexyltin 5-nitro-2-furoate [Compound C]” here?
The growth inhibition was “-”.

What about the growth inhibition (Escherichia coli; 10 μg/ml) of the same substance?
The growth inhibition was “-”.

And the growth inhibition (Escherichia coli; 100 μg/ml)?
Its growth inhibition is “-”.

And the growth inhibition (Pseudomonas aeruginosa; 1 μg/ml)?
The growth inhibition was “-”.

And the growth inhibition (Pseudomonas aeruginosa; 10 μg/ml)?
The growth inhibition was “-”.

And the growth inhibition (Pseudomonas aeruginosa; 100 μg/ml)?
Its growth inhibition is “-”.

What about the growth inhibition ([1]; 1 μg/ml) of the same substance?
Its growth inhibition is “+”.

And the growth inhibition ([1]; 10 μg/ml)?
Its growth inhibition is “+”.

And the growth inhibition ([1]; 100 μg/ml)?
Its growth inhibition is “+”.

And the growth inhibition ([2]; 1 μg/ml)?
The growth inhibition was “+”.

And the growth inhibition ([2]; 10 μg/ml)?
The growth inhibition was “+”.

And the growth inhibition ([2]; 100 μg/ml)?
Its growth inhibition is “+”.

What about the growth inhibition ([3]; 1 μg/ml) of the same substance?
Its growth inhibition is “-”.

And the growth inhibition ([3]; 10 μg/ml)?
The growth inhibition was “-”.

What about the growth inhibition ([3]; 100 μg/ml) of the same substance?
The growth inhibition was “-”.

And the growth inhibition ([4]; 1 μg/ml)?
The growth inhibition was “+”.

What about the growth inhibition ([4]; 10 μg/ml) of the same substance?
Its growth inhibition is “+”.

And the growth inhibition ([4]; 100 μg/ml)?
The growth inhibition was 2+.

What about the growth inhibition ([5]; 1 μg/ml) of the same substance?
The growth inhibition was “+”.

What about the growth inhibition ([5]; 10 μg/ml) of the same substance?
Its growth inhibition is “+”.

And the growth inhibition ([5]; 100 μg/ml)?
The growth inhibition was “+”.

What about the growth inhibition ([6]; 1 μg/ml) of the same substance?
The growth inhibition was “+”.

What about the growth inhibition ([6]; 10 μg/ml) of the same substance?
The growth inhibition was “+”.

And the growth inhibition ([6]; 100 μg/ml)?
Its growth inhibition is “+”.

And the growth inhibition ([7]; 1 μg/ml)?
Its growth inhibition is “+”.

What about the growth inhibition ([7]; 10 μg/ml) of the same substance?
Its growth inhibition is “+”.

What about the growth inhibition ([7]; 100 μg/ml) of the same substance?
Its growth inhibition is “+”.

And the growth inhibition ([8]; 1 μg/ml)?
Its growth inhibition is “-”.

What about the growth inhibition ([8]; 10 μg/ml) of the same substance?
The growth inhibition was “+”.

And the growth inhibition ([8]; 100 μg/ml)?
Its growth inhibition is “+”.

And the growth inhibition ([9]; 1 μg/ml)?
The growth inhibition was “+”.

What about the growth inhibition ([9]; 10 μg/ml) of the same substance?
The growth inhibition was “+”.

What about the growth inhibition ([9]; 100 μg/ml) of the same substance?
Its growth inhibition is “+”.

And the growth inhibition ([10]; 1 μg/ml)?
Its growth inhibition is “+”.

And the growth inhibition ([10]; 10 μg/ml)?
Its growth inhibition is “+”.

And the growth inhibition ([10]; 100 μg/ml)?
Its growth inhibition is “+”.

With “Trimethyltin 5-nitro-2-furoate [Compound E]” as the substance, how does the “activity towards the Gram-negative bacterium (in words)” value (Escherichia coli) read?
Its value is “showed activity”.

And the “growth inhibition (in words)” value (Escherichia coli; 100 μg/ml)?
The value was “completely inhibited”.

And the growth inhibition (Escherichia coli; 1 μg/ml)?
The growth inhibition was “-”.

And the growth inhibition (Escherichia coli; 10 μg/ml)?
Its growth inhibition is “-”.

What about the “activity towards the Gram-negative bacterium (in words)” value (Pseudomonas aeruginosa) of the same substance?
Its value is “showed activity”.

And the growth inhibition (Pseudomonas aeruginosa; 1 μg/ml)?
The growth inhibition was “-”.

What about the growth inhibition (Pseudomonas aeruginosa; 10 μg/ml) of the same substance?
The growth inhibition was “-”.

What about the growth inhibition (Staphylococcus aureus; 1 μg/ml) of the same substance?
Its growth inhibition is “-”.

What about the growth inhibition (Staphylococcus aureus; 10 μg/ml) of the same substance?
Its growth inhibition is “-”.

And the growth inhibition ([1]; 1 μg/ml)?
The growth inhibition was “+”.

And the “growth inhibition (in words)” value ([1]; 10 μg/ml)?
The value was “completely inhibited”.

And the growth inhibition ([1]; 10 μg/ml)?
The growth inhibition was 2+.

And the growth inhibition ([1]; 100 μg/ml)?
Its growth inhibition is 2+.

And the growth inhibition ([2]; 1 μg/ml)?
Its growth inhibition is “-”.

What about the growth inhibition ([2]; 10 μg/ml) of the same substance?
Its growth inhibition is “+”.

And the growth inhibition ([2]; 100 μg/ml)?
Its growth inhibition is “+”.

And the growth inhibition ([3]; 1 μg/ml)?
Its growth inhibition is “-”.

And the growth inhibition ([3]; 10 μg/ml)?
The growth inhibition was “-”.

And the growth inhibition ([3]; 100 μg/ml)?
The growth inhibition was “-”.

What about the growth inhibition ([4]; 1 μg/ml) of the same substance?
The growth inhibition was “-”.

What about the growth inhibition ([4]; 10 μg/ml) of the same substance?
The growth inhibition was “+”.

And the “growth inhibition (in words)” value ([4]; 100 μg/ml)?
Its value is “completely inhibited”.

What about the growth inhibition ([4]; 100 μg/ml) of the same substance?
Its growth inhibition is 2+.

And the growth inhibition ([5]; 1 μg/ml)?
The growth inhibition was “-”.

And the growth inhibition ([5]; 10 μg/ml)?
The growth inhibition was “+”.

What about the growth inhibition ([5]; 100 μg/ml) of the same substance?
The growth inhibition was “+”.

And the growth inhibition ([6]; 1 μg/ml)?
Its growth inhibition is “+”.

What about the growth inhibition ([6]; 10 μg/ml) of the same substance?
The growth inhibition was “+”.

What about the growth inhibition ([6]; 100 μg/ml) of the same substance?
Its growth inhibition is 2+.

What about the growth inhibition ([7]; 1 μg/ml) of the same substance?
Its growth inhibition is “+”.

And the growth inhibition ([7]; 10 μg/ml)?
Its growth inhibition is “+”.

And the growth inhibition ([7]; 100 μg/ml)?
The growth inhibition was “+”.

What about the growth inhibition ([8]; 1 μg/ml) of the same substance?
Its growth inhibition is “+”.

What about the growth inhibition ([8]; 10 μg/ml) of the same substance?
Its growth inhibition is “+”.

And the growth inhibition ([8]; 100 μg/ml)?
The growth inhibition was “+”.

What about the growth inhibition ([9]; 1 μg/ml) of the same substance?
The growth inhibition was “+”.

And the growth inhibition ([9]; 10 μg/ml)?
Its growth inhibition is “+”.

And the growth inhibition ([9]; 100 μg/ml)?
Its growth inhibition is “+”.

And the growth inhibition ([10]; 1 μg/ml)?
Its growth inhibition is “-”.

And the growth inhibition ([10]; 10 μg/ml)?
The growth inhibition was “+”.

And the growth inhibition ([10]; 100 μg/ml)?
Its growth inhibition is “+”.
